Measured values: US6384173B1, “Silicone functionalized triclosan” (Siltech LLC, priority 2001, dated 2002)
Read-outs that look alike come from different tables or passages of the source.

What was measured:
[1] = Thermal Gravimetric Analysis (weight percent lost); assay type: physicochemical; conditions: Perkin-Elmer TGA 7, temperature scanned from 40 to 250 degrees at 20 degree C./minute, at completion of scan
Method: Thermal Gravimetric Analysis
Measurements were obtained of the weight percent lost for the samples below using a Perkin-Elmer TGA 7 where the temperature was scanned from 40° to 250° at 20° C./minute. At the completion of the temperature scan for each, the following results were obtained: […]

[2] = TGA, 40 to 250 degrees at 20 degree C./minute; value marked (U.S. Pat. No. 6,197,072); cited from earlier work

Row | Molecule | % Weight Loss [1] | % Weight Loss [2]
1 | Oc1cc(Cl)ccc1Oc1ccc(Cl)cc1Cl [Triclosan, triclosan] | 62% | –
2 | Triclosan Acetate | – | 12 (U.S. Pat. No. 6,197,072) %
